Laboratory results reported in patent US20040220268A1, “Compound that directly stimulates phospholipase C activity” (priority 2003, published 2004).

Molecular target: T1, PLC β3 (Homo sapiens, UniProt Q01970)
T1 sequence (Q01970 1-1234): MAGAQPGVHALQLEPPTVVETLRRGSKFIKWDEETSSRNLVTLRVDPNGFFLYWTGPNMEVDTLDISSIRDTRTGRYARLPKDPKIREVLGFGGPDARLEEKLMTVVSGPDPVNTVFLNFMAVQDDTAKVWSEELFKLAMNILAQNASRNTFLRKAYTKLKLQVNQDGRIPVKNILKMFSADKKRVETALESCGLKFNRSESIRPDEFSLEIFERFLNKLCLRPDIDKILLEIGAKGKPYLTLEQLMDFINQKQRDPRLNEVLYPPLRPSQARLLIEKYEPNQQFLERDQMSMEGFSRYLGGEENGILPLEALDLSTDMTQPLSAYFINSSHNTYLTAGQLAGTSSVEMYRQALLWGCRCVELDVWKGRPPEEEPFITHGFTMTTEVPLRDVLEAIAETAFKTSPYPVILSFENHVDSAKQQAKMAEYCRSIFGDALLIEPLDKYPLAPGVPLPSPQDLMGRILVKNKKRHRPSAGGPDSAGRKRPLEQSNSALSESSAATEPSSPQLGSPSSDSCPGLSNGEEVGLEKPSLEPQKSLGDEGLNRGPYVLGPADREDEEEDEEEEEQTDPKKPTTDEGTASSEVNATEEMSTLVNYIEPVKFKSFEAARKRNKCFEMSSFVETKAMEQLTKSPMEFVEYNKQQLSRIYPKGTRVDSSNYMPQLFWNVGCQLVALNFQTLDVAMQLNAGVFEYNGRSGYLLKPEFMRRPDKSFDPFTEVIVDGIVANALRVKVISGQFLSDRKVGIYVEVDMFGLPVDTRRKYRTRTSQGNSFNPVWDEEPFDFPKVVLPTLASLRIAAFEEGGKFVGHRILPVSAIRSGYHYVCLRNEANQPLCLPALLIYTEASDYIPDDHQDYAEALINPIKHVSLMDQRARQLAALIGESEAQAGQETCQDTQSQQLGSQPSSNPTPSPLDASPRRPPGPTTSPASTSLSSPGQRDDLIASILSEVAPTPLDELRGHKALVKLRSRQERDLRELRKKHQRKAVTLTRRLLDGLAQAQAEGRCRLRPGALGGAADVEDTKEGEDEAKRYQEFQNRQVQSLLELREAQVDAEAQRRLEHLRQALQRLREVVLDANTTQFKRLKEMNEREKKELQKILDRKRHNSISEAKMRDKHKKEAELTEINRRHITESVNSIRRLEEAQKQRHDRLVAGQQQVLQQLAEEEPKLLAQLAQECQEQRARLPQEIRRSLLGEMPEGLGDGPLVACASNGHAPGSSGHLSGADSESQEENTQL
Assay: Phosphoinositide hydrolysis in vitro
Type: biochemical
Conditions: 25 μM; purified isozyme
Protocol: The hydrolyzing activity of PtdIns-4,5-P2 was measured on mixed phospholipid vesicles containing 120 μM phosphatidylethanolamine, 30 μM PtdIns-4,5-P2, and 1 μCi/ml [3H] PtdIns-4,5-P2. Purified PLC β2, substrates, and the chemicals (2.5, 5, 10, 20, and 25 μM of m-3M3FBS or of o-3M3FBS) were coincubated (A), 25 μM of m-3M3FBS or o-3M3FBS, and phospholipid substrates were mixed with purified PLC β3, γ1, 2, or δ1 (B). Reactions were performed for 10 min at 37° C. in a 200 μl reaction mixture containing lipid micelles (5 μM [^3H] PtdIns-4,5-P2, 20,000 cpm). Reactions were stopped by adding 1 ml of CHCl3:CH3OH:HCl (50:50:0.3, v/v/v). Inositol trisphosphates were extracted with 0.5 ml of 1 M HCl/5 mM EGTA, and the radioactivity in the upper aqueous phase was measured. Data are presented as means ±S. E. M. of three independent experiments (A, B).
PLC activity was assayed using [^3H] PtdIns-4,5-P2 as a substrate (Min et al., 1993). PtdIns-4,5-P2-hydrolyzing activity was measured with mixed phospholipid micelles containing 120 μM phosphatidylethanolamine, 30 μM PtdIns-4,5-P2, and 1 μCi/ml [^3H] PtdIns-4,5-P2. The lipids, in chloroform, were dried under a stream of nitrogen gas, suspended in assay buffer (20 mM HEPES pH 7.0, 120 mM NaCl, 2 mM MgCl2, 40 or 100 μM CaCl2, and 1 mg/ml bovine albumin serum (Bayer, Leverkusen, Germany)), and sonicated. All proteins added to the reaction mixture were dialyzed overnight against the assay buffer. Incubation was performed for 10 min at 37° C. in a 200 μl reaction mixture containing lipid micelles (5 μM [3H] PtdIns-4,5-P2, 20,000 cpm). The reaction was stopped by adding 2 ml of CHCl3: CH3OH: HCl (50: 50: 0.3, v/v/v). The inositol triphosphates were extracted with 0.5 ml of 1 N HCl, and radioactivities in the upper aqueous phase were measured.

| SMILES | activity of PLC beta3 |
| --- | --- |
| Cc1cc(C)c(S(=O)(=O)Nc2cccc(C(F)(F)F)c2)c(C)c1 [m-3M3FBS, 2,4,6-Trimethyl-N-(meta 3-trifluoromethyl-phenyl)-benzenesulfonamide] | augmented the activity |
| Cc1cc(C)c(S(=O)(=O)Nc2ccccc2C(F)(F)F)c(C)c1 [o-3M3FBS, 2,4,6-Trimethyl-N-(ortho 3-trifluoromethyl-phenyl)-benzenesulfonamide, reference compound] | did not affect |
